Counter-ions that a name gives are not always drawn.
Tests used:
[1] = test system: Ba/F3 ERBB2 YVMA; experiment: Cell viability assay (CellTiter Glo, 72 hours); assay type: cell-based, mouse; settings: Mus musculus, BaF3, 72 h, read-out: Ba/F3 ERBB2 YVMA, IC50, nM
Protocol: Cells were treated with compounds, and cell viability was measured as a metric of kinase inhibition.
BT-474, A431, MDA-MB-175VII, NCI-H1781, MCF7, and Ba/F3 cell lines were tested. The Ba/F3 cell line is IL-3-dependent mouse cell line derived from the C3H mouse strain. Ba/F3 cell lines were engineered to express human ERBB2 or EGFR kinases, rendering the cells IL-3 independent. The lines were generated via retroviral transduction utilizing a Moloney murine leukemia virus (MMLV) promoter, and constructs are stably integrated into the cell genome. The sequences of the ERBB2 and EGFR genes used were NCBI Reference Sequences NM_004448.3 and NM_005228.3, respectively.
BT-474, A431, MDA-MB-175VII, NCI-H1781 and MCF7 cells were grown in the appropriate growth medium as described in Table B2 below, and harvested at 50-80% confluence. BT-474, A431, MDA-MB-175VII, NCI-H1781 and MCF7 cells were counted and seeded at 2,000 or 1,500 cells per well in 384-well tissue culture plates (see Table B2). Similarly, Ba/F3 cell lines engineered to express EGFR, ERBB2, or ERBB2 mutants were grown, harvested, counted and seeded at 3000 cells per well in 96-well plates. A subset of wells contained media only (low control, “LC”).
Table B1 provides the growth media and number of cells seeded per well for the each cell line.
Compounds were dissolved in DMSO and serially diluted. Serially-diluted compound or a DMSO only control (high control, “HC”) was added to the plated cells in each well. Compounds were tested at concentrations of about 10 μM to 0.51 nM, using three-fold dilutions. The final proportion of DMSO never exceeded 0.1%.
Plates were placed in a 37° C., 5% CO2 incubator for 72 hours. Plates were then removed from the incubator and equilibrated for 15 minutes at room temperature. 40 μl of CellTiter Glo reagent (Promega) was added to measure the relative level of metabolically active cells by quantifying intracellular ATP concentrations. Plates were incubated for 30 minutes at room temperature, and luminescence was measured. Percent viability was normalized to a vehicle control only using the following formula: % viability=100×(LumSample−LumLC)/(LumHC−LumLC). Graphical curves were fitted using a nonlinear regression model with a sigmoidal dose response.

[2] = target: phosphorylated ERBB2 (pERBB2) (Homo sapiens (Human), UniProt P04626); experiment: Detection of phosphorylated ERBB2 (pERBB2) by ELISA in BT-474 cells; assay type: cell-based; settings: four hours incubation with compound
Summary of the method: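 BT-474 cells were exposed to serially diluted compounds for 4 h at 37 °C, then lysed. Phospho-ERBB2 in lysates was captured by ELISA and detected with an HRP anti-phosphotyrosine antibody and TMB.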

[3] = target: phosphorylated EGFR (pEGFR) (Homo sapiens (Human), UniProt P00533); experiment: Detection of phosphorylated EGFR (pEGFR) by AlphaLISA in A431 cells; assay type: cell-based; settings: A431 cells (10% FBS), 4 hours incubation, EGF 30 ng/mL for 10 minutes
Summary of the method: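 A431 cells in 10% FBS exposed to compound for 4 h at 37 °C, then stimulated 10 min with 30 ng/mL EGF. Lysates assayed for phospho-EGFR by AlphaLISA. % inhibition relative to DMSO and staurosporine controls; IC50 from four-parameter curve fit.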

Sequence of phosphorylated ERBB2 (pERBB2) (P04626 23-1255): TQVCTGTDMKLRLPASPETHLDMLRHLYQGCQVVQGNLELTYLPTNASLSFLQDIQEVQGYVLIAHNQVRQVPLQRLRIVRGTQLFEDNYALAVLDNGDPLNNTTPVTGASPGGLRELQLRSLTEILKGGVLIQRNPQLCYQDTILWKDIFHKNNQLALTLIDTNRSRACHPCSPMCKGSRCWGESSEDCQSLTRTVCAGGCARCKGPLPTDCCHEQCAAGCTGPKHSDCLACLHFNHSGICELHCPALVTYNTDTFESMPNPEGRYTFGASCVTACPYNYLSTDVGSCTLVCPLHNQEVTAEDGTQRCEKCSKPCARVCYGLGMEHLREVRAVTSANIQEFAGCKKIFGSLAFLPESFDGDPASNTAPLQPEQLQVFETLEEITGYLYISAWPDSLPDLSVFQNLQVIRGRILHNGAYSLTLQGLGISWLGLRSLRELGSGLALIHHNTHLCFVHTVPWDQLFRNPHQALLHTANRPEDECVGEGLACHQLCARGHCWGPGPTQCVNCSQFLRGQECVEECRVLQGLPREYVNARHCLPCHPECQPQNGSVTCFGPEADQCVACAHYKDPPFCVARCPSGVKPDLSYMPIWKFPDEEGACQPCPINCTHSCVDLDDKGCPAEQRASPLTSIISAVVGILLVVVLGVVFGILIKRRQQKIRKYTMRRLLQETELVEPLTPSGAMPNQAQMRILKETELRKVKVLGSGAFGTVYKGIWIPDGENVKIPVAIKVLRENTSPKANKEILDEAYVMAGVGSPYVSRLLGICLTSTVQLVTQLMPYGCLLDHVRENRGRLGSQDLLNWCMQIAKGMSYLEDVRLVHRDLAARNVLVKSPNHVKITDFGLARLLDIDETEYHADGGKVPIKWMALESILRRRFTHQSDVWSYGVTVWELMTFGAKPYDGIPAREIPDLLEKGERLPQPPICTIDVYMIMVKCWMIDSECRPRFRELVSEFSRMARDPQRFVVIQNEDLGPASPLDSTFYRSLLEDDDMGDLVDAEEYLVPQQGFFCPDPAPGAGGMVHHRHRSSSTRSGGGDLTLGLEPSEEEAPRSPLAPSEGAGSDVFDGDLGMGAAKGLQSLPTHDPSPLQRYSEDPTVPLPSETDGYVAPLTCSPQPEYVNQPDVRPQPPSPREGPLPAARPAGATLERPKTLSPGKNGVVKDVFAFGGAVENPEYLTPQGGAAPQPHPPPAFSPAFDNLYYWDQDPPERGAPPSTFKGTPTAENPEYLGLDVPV
Sequence of phosphorylated EGFR (pEGFR) (P00533 25-1210): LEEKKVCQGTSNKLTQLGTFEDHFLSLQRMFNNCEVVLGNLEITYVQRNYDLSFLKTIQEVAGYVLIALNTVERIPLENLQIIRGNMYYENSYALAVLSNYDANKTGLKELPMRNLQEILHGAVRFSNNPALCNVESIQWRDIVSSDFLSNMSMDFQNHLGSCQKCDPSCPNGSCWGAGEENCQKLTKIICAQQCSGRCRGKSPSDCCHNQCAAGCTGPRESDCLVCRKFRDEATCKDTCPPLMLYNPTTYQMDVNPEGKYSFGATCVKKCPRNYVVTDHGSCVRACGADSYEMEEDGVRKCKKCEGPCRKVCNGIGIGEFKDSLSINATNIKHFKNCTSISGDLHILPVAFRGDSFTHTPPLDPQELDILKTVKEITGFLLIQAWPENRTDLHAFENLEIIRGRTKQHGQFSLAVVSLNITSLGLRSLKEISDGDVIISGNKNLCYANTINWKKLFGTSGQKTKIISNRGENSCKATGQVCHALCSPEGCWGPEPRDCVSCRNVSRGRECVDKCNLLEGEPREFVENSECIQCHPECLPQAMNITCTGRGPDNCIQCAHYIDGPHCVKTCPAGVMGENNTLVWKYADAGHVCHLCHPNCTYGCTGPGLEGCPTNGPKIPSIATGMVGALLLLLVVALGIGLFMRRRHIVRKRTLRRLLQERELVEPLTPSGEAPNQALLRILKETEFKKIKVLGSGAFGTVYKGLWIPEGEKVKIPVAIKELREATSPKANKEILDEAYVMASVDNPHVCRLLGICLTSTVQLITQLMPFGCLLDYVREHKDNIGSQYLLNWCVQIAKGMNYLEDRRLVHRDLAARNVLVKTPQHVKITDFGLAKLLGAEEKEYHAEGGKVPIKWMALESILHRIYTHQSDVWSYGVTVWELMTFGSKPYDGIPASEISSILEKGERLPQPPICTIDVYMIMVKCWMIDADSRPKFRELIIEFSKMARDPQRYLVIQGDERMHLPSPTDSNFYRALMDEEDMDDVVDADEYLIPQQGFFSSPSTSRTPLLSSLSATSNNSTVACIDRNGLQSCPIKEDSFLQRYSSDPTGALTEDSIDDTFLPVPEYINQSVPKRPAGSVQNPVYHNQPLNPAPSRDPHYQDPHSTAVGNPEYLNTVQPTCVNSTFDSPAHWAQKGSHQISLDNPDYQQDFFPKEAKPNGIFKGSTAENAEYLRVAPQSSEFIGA

Row | Compound | IC50 [1] | IC50 [2] | IC50 [3]
1 | [2H]C([2H])([2H])N(C/C=C/C(=O)N1CCN2CC1COc1cc3ncnc(Nc4ccc(Oc5ccn6ncnc6c5)c(C)c4)c3nc12)C([2H])([2H])[2H] (stereo in doubt) [Compound 36, (E)-1-((10S)-4-((4-([1,2,4]triazolo[1,5-a]pyridin-7-yloxy)-3-methylphenyl)amino)-7,8,10,11-tetrahydro-9H-6,10-methanopyrimido[4′,5′:5,6]pyrido[3,2-b][1,4,7]oxadiazonin-9-yl)-4-(bis(methyl-d3)amino)but-2-en-1-one formic acid] | 6.19 nM | 9.92 nM | 1620 nM
2 | CNC/C=C/C(=O)N1CCN2CC1COc1cc3ncnc(Nc4ccc(Oc5ccn6ncnc6c5)c(C)c4)c3nc12 (stereo in doubt) [Compound 37, (E)-1-((10S)-4-((4-([1,2,4]triazolo[1,5-a]pyridin-7-yloxy)-3-methylphenyl)amino)-7,8,10,11-tetrahydro-9H-6,10-methanopyrimido[4′,5′:5,6]pyrido[3,2-b][1,4,7]oxadiazonin-9-yl)-4-(methylamino)but-2-en-1-one formate] | 52.3 nM | 28 nM | 3620 nM
3 | CCc1ccc(Oc2ccc(Nc3ncnc4cc5c(nc34)N3CCN(C(=O)/C=C/CN(C)C)C(CO5)C3)cc2C)cn1 (stereo in doubt) [Compound 38, (E)-4-(dimethylamino)-1-((10S)-4-((4-((6-ethylpyridin-3-yl)oxy)-3-methylphenyl)amino)-7,8,10,11-tetrahydro-9H-6,10-methanopyrimido[4′,5′:5,6]pyrido[3,2-b][1,4,7]oxadiazonin-9-yl)but-2-en-1-one formic acid] | 11.8 nM | 126 nM | 3080 nM
4 | [2H]C([2H])([2H])N(C/C=C/C(=O)N1CCN2CC1COc1cc3ncnc(Nc4cc(C)c(Oc5ccn6ncnc6c5)cc4F)c3nc12)C([2H])([2H])[2H] (stereo in doubt) [Compound 46, (E)-1-((10S)-4-((4-([1,2,4]triazolo[1,5-a]pyridin-7-yloxy)-2-fluoro-5-methylphenyl)amino)-7,8,10,11-tetrahydro-9H-6,10-methanopyrimido[4′,5′:5,6]pyrido[3,2-b][1,4,7]oxadiazonin-9-yl)-4-(bis(methyl-d3)amino)but-2-en-1-one] | 7.04 nM | 6.84 nM | 2470 nM

— patent US20230382923A1, “FUSED TETRACYCLIC QUINAZOLINE DERIVATIVES AS INHIBITORS OF ERBB2” (EnLiven Therapeutics, Inc., priority 2021, published 2023)
